In article PMC12491701, “Discovery of an APP-selective BACE1 inhibitor for Alzheimer's disease” (Neurotherapeutics, 2025):
Read-outs that look alike come from different tables or passages of the source.

Key:
B254 mice = test: Efficacy testing in B254 mice; assay type: in vivo, mouse
Text: (§1) B254 mice are an AD model comprising expression of human APP with Swedish and Indiana mutations along with a D664A substitution and endogenous murine tau, as described in Galvan et al.. In our in vivo studies, we detected impairment in learning and memory in B254 D664A mice at 5–6 months of age (end of chronic treatment) in the novel location and novel object spatial memory testing paradigms. We note that previous studies have reported conflicting findings for such impairments when using in the Morris Water Maze. […] In a later study performed by a different group, it was reported that at both 2–3 or 5–7 months of age B254 and J20 mice had similar abnormalities relative to non-transgenic mice in spatial and nonspatial learning and memory. Our findings were in alignment with the latter studies.
(§2) Male and female 4-5 month-old B254 mice in the subchronic and chronic treatment were administered FAH65 via pipette feeding by the method of Atcha et al. at a dose of 30 mg/kg BID (60 mg/kg/day). Mice were weighed before the first dose for the calculation of volume to be administered. The formulation used comprised FAH65 hydrochloride as a 40 mg/mL solution in water plus 30 mg/mL in strawberry syrup.
(§3) In the pilot subchronic study, mice were treated for 10 days, and in the follow-up study, for 26 days. One week before the end of the study, mice in the pilot study underwent Novel Object Recognition (NOR) memory testing, and mice in the follow-up chronic study underwent both NOR and Novel Location Recognition (NLR) testing as described elsewhere. Briefly, mice are introduced to two identical, parallel and evenly objects in an opaque 30 × 40 cm arena (box without a lid) with navigation marks on the wall, for 10 min. For Novel Location Recognition (NLR), after a 2.5-h interval, the mouse is returned to the arena wherein one identical object has been moved diagonally. The time spent and number of discreet interactions with the objects in the original location and in the new location over 10 min is recorded. The mouse is then removed from the arena, and after an additional 2.5-h interval, for the Novel Object Recognition (NOR) phase, is returned to the arena wherein the objects are in the original position, but one is a new, different object. The time spent and number of discreet interactions with the objects in the original location and in the new location over 10 min is recorded. The novelty preference was calculated by […].
(§4) For in vivo studies, Individual tissues were weighed and sonicated on ice with AlphaLISA Lysis Buffer complemented with HALT (Fisher catalog # 78446) to give a 10 % W/V sonicate. Total protein concentration was assessed by BCA assay (Fisher catalog # 23227) following manufacturer recommendations.
(§5) For the ELISA assay to assess sAPPβ levels in brain an IBL ELISA (kit #27733) specific for sAPPβ with the Swedish (K595 N/M596L) mutation that is present in the APP transgene of the mouse model used following the kit instructions. Briefly, 499 μL of EIA buffer was added to individual tubes for each sample, 1 μL of sample added, vortexed and centrifuged. To each assay plate well, 100 μL of sample was added, and the covered plate incubated overnight at 4 °C. The plate(s) was washed 4 times with 350 μL/well wash buffer, then 100 μL/well of labeled antibody added followed by incubation for 30 min at 4 °C. After five washes, 100 μL chromogen solution was added to each well and incubated for 30 min at RT in the dark. Stop solution (100 μL/well) was then added and the plate read at 450 nm. […]

[1] = Efficacy testing in B254 mice; assay type: in vivo, mouse; details: both sexes, B254, mouse, brain, oral, 30 mg/kg BID, read-out: mean brain level of compound
Text: as §1, §2, §3, §4, §5

[2] = test system: CHO cells that express APP with the Swedish (Swe) K595N/M596L mutation; test: Aβ1-42 production in CHO-7W Swe cells; assay type: cell-based, Chinese hamster; details: 1 μM, 24-h treatment, in words
Experimental: The Chinese hamster ovary (CHO) cell line overexpressing human AβPP (7W) stably transfected with human APP or overexpressing APP with the Swedish (Swe) K595 N/M596L mutation were incubated with FAH compounds diluted to 1 μM overnight. Culture Media was collected and frozen. Media was assayed using an AlphaLISA for Aβ1-42 (Perkin Elmer catalog # AL276C), sAPPα (R&D Systems catalog # AF1168 conjugated with Perkin Elmer acceptor beads catalog # 6772001 + 2B3 antibody from IBL catalog # 11088 biotinylated), and sAPPβ (Perkin Elmer AL276-acceptor + IBL catalog # 18957 biotinylated). For the assay, 2 μL of diluted or undiluted sample was added to a 384 well plate, followed by 2 μL of the respective antibody mixture. This was incubated for 1 h. Afterwards, 2 μL of donor beads was added to each well, followed by a 30-min incubation in the dark, after which the signal was read.

cathepsin D (CatD) = target: T1, cathepsin D (CatD) (Homo sapiens, UniProt P07339); test: Cathepsin D activity assay; assay type: biochemical
T1 construct: purchased R&D Systems 1014-AS
T1 sequence (P07339 65-412): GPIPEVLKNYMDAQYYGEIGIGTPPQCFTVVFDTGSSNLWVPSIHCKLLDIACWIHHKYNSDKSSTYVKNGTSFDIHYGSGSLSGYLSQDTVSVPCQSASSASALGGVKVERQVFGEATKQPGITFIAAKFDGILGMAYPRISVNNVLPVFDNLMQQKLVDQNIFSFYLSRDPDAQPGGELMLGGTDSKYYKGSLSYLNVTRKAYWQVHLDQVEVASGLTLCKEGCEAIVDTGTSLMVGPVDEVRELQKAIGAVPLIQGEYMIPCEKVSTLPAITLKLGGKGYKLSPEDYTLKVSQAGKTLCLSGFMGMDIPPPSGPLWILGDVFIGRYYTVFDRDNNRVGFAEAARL
Experimental: The effects of candidate ASBIs on cathepsin D (CatD) activity was assessed using the R&D Systems CatD activity assay kit (Catalog #: 1014-AS and ES001) according to the manufacturer's instructions. For the assay, 4 μL of assay buffer was added to each well, followed by 2 μL of CatD diluted in assay buffer to 5 ng/uL. Then, 2 μL of inhibitor, at concentrations along an 11 pt. two-fold dilution series starting at 50 μM, were added to appropriated wells and incubated for 30 min at room temperature. For all dilutions of inhibitor, drug stock solutions of 10 mM in DMSO were diluted to 50 μM in water; subsequent dilutions were in 2.5 % DMSO. Afterwards, 2 μL of fluorogenic CatD substrate, diluted to 50 μM in assay buffer, were added to each well, after which the signal generated was read every 30 min at 25 °C for 1hr.

[3] = chronic study, oral 30 mkd, 26 days

Compound: Cc1cc(C2(c3cccc(-c4cncnc4)c3)N=C(N)N(C)C2=O)ccc1OC(F)F (stereo not shown) [FAH65]
- novelty preference in NOR vs. vehicle (B254 mice; [3]): significant increase
- novelty preference in Novel Location Recognition (NLR) vs. vehicle (B254 mice; [3]): significant increase
- brain level of Aβ1-42 vs. vehicle (B254 mice; chronic, 26 days): not significantly different
- brain level of sAPPβ vs. vehicle (B254 mice; chronic, 26 days): not significantly different
- sAPPα in brain tissue vs. vehicle (B254 mice; chronic, 26 days): significantly higher
- sAPPβ/sAPPα ratio in brain tissue vs. vehicle (B254 mice; chronic, 26 days): significantly lower
- Novel Object Recognition (NOR) performance vs. vehicle (B254 mice; pilot subchronic study, oral 30 mkd, 10 days): not significantly increased
- GFAP, IP-10, Aβ1-38, Aβ1-40, Aβ1-42 and Aβ1-42/1-40 ratio in brain (MSD) vs. vehicle (B254 mice; subchronic study): no significant differences
- APP β-CTF in brain tissue vs. vehicle (B254 mice; subchronic, 10 days): significant decrease
- Aβ 1-42 in brain vs. vehicle (B254 mice; subchronic, 10 days): not significant
- p-tau/t-tau ratio in brain vs. vehicle (B254 mice; subchronic, 10 days): not significant
- concentration at 2 h ([1]; chronic, 2 h after last day dosing): ~50 ng/g
- concentration at 2 h ([1]; subchronic, 2 h after the last dose): ~20 ng/g
- Aβ1-42 [2]: significantly decreases
- inhibition of cathepsin D activity (cathepsin D (CatD); in words): Neither analog significantly inhibited
- IC50 (cathepsin D (CatD); read-out: Cat D IC50): ~47 µM
